# From article PMC10382584, “Macrocyclization of linear molecules by deep learning to facilitate macrocyclic drug candidates discovery” (Nature Communications, 2023)
# Experiments:
# Assay in all cases: biochemical
# Design in all cases: DiscoveRx KINOMEscan competition binding, percent of DMSO control signal at 100 nM
# Conditions in all cases: read-out: Fig. 4a / Percent Control / Compound 1; percent of DMSO control, competition binding
# [1] = molecular target: T1, ABL1(E255K)-phosphorylated (Homo sapiens, UniProt P00519, E255K)
# T1 construct: phosphorylated
# [2] = molecular target: AURKC (Homo sapiens, UniProt Q9UQB9)
# [3] = molecular target: PRKX (Homo sapiens, UniProt P51817)
# [4] = molecular target: AAK1 (Homo sapiens, UniProt Q2M2I8)
# [5] = molecular target: PIK3CA(H1047L) (Homo sapiens, UniProt P42336, H1047L)
# [6] = molecular target: MARK2 (Homo sapiens, UniProt Q7KZI7)
# [7] = molecular target: KIT(D816V) (Homo sapiens, UniProt P10721, D816V)
# [8] = molecular target: GSK3B (Homo sapiens, UniProt P49841)
# [9] = molecular target: T2, JNK1 (Homo sapiens, UniProt P45983)
# T2 construct: gene MAPK8
# [10] = molecular target: T3, RSK1(Kin.Dom.2-C-terminal) (Homo sapiens, UniProt Q15418)
# T3 construct: gene RPS6KA1; Kin.Dom.2-C-terminal
# [11] = molecular target: BRAF (Homo sapiens, UniProt P15056)
# [12] = molecular target: T4, ABL1(F317L)-phosphorylated (Homo sapiens, UniProt P00519, F317L)
# T4 construct: phosphorylated
# [13] = molecular target: T5, SIK (Homo sapiens, UniProt P57059)
# T5 construct: gene SIK1
# [14] = molecular target: WEE2 (Homo sapiens, UniProt P0C1S8)
# [15] = molecular target: MAP4K4 (Homo sapiens, UniProt O95819)
# [16] = molecular target: MST1R (Homo sapiens, UniProt Q04912)
# [17] = molecular target: TNK1 (Homo sapiens, UniProt Q13470)
# [18] = molecular target: PIK3C2B (Homo sapiens, UniProt O00750)
# [19] = molecular target: NEK9 (Homo sapiens, UniProt Q8TD19)
# [20] = molecular target: SGK3 (Homo sapiens, UniProt Q96BR1)
# [21] = molecular target: MUSK (Homo sapiens, UniProt O15146)
# [22] = molecular target: T6, MEK4 (Homo sapiens, UniProt P45985)
# T6 construct: gene MAP2K4
# [23] = molecular target: TESK1 (Homo sapiens, UniProt Q15569)
# [24] = molecular target: KIT(V559D) (Homo sapiens, UniProt P10721, V559D)
# [25] = molecular target: T7, DLK (Homo sapiens, UniProt Q12852)
# T7 construct: gene MAP3K12
# 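Note: KINOMEscan kinase panel binding assay, signal normalized between DMSO as 100% and a positive control compound as 0%.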
# T4 sequence (P00519 whole entry F317L): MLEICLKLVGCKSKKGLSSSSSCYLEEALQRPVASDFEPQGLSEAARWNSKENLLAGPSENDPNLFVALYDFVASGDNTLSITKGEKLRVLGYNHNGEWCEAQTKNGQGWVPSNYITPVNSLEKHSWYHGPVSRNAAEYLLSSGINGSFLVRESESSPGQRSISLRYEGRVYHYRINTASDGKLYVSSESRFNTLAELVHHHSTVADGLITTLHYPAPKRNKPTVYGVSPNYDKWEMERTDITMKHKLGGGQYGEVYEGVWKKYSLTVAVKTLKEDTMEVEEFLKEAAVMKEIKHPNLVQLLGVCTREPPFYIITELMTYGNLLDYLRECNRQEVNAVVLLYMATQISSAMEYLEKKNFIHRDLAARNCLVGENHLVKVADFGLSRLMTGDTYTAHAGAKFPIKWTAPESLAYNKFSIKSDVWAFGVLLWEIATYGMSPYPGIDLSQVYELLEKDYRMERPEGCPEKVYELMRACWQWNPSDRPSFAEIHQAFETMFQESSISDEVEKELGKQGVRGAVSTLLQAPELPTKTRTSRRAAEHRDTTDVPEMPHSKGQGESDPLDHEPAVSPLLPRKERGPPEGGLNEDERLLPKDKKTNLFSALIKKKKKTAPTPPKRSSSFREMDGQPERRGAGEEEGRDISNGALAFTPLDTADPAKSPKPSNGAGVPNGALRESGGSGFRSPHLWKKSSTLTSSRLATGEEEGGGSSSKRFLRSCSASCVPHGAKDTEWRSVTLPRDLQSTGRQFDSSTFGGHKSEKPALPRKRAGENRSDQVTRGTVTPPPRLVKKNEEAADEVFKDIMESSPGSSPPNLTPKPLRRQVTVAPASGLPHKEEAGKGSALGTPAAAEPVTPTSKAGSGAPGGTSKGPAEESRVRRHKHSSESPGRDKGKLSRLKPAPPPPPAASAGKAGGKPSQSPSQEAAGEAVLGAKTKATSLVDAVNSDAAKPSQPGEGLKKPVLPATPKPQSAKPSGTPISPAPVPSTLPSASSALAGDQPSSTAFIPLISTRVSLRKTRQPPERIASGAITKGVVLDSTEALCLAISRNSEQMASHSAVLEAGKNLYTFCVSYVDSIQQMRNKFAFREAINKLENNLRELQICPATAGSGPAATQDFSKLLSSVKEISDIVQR
# Chain of KIT(V559D) (P10721 whole entry V559D): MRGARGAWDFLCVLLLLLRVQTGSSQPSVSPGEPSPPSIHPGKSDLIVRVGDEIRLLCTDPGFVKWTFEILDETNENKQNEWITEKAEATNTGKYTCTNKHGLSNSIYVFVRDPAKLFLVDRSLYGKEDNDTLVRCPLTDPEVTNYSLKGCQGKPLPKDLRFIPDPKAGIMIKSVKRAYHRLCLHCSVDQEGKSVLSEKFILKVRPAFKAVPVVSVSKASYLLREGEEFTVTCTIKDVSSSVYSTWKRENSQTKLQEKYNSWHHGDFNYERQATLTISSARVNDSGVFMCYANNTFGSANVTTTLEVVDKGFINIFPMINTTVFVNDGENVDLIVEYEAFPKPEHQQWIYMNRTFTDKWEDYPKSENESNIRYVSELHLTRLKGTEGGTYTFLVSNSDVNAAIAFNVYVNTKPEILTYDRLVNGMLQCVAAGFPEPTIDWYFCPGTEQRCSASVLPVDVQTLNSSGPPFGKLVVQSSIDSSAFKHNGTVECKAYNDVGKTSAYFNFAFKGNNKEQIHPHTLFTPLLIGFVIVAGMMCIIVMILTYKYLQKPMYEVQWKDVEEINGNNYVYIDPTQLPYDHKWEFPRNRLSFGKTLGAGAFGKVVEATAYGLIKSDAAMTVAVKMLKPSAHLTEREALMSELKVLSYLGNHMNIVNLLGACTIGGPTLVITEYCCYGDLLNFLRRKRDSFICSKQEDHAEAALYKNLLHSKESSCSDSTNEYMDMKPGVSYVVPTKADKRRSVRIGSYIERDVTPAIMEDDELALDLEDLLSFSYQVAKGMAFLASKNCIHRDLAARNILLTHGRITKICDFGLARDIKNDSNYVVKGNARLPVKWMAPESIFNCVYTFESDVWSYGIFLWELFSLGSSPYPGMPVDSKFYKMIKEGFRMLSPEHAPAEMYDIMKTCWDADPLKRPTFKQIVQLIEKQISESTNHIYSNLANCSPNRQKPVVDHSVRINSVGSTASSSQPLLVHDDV
# T3 sequence (Q15418 whole entry): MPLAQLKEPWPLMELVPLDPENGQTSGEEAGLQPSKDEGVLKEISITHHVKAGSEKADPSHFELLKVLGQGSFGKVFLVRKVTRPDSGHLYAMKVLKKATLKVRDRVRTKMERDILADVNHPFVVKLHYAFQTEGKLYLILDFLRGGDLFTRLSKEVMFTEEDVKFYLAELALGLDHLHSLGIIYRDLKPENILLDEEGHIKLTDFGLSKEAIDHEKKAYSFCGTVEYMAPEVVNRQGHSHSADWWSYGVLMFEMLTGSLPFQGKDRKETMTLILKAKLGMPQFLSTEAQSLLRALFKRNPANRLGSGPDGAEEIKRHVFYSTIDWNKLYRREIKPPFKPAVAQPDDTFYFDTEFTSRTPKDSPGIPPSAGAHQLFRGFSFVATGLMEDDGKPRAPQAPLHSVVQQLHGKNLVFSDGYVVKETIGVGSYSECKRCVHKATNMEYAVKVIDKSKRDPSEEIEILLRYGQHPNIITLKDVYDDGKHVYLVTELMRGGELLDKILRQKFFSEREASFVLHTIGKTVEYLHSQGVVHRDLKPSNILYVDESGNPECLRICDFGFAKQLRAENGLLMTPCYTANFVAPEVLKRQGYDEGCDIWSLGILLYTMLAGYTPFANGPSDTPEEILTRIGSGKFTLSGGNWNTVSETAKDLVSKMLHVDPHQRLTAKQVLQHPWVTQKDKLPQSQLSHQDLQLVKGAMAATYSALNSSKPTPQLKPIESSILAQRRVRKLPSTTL
# Chain of MAP4K4 (O95819 whole entry): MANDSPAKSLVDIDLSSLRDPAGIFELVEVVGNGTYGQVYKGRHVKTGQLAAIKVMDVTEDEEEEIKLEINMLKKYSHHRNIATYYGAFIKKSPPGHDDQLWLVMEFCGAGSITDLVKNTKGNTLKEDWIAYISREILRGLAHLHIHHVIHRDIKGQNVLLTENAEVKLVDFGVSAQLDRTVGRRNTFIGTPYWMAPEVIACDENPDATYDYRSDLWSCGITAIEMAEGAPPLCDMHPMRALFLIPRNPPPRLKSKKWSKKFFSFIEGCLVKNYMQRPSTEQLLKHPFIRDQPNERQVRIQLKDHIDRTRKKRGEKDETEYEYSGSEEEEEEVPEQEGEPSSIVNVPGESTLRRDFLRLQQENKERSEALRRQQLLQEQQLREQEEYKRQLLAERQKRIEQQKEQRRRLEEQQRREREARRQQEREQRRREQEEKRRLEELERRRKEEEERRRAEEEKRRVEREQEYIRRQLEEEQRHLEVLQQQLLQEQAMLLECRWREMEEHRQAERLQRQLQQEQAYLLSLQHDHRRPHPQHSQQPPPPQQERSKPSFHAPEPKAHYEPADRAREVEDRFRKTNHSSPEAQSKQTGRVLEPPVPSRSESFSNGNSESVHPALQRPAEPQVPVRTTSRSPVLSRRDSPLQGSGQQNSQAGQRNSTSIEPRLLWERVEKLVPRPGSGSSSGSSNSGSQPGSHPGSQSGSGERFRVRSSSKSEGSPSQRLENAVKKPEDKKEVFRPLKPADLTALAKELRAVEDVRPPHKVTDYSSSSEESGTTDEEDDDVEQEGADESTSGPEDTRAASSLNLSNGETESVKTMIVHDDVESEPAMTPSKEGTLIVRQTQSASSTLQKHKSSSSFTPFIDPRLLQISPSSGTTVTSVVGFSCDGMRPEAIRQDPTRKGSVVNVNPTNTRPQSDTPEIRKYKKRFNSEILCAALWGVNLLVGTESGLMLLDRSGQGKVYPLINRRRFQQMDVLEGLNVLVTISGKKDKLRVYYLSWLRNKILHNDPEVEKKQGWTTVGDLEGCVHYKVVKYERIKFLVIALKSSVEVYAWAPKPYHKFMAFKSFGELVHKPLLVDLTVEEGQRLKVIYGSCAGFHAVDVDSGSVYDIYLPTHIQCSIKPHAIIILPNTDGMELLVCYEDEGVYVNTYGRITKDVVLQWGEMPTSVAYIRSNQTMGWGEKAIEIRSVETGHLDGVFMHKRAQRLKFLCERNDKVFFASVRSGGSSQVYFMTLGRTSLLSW
# T6 sequence (P45985 whole entry): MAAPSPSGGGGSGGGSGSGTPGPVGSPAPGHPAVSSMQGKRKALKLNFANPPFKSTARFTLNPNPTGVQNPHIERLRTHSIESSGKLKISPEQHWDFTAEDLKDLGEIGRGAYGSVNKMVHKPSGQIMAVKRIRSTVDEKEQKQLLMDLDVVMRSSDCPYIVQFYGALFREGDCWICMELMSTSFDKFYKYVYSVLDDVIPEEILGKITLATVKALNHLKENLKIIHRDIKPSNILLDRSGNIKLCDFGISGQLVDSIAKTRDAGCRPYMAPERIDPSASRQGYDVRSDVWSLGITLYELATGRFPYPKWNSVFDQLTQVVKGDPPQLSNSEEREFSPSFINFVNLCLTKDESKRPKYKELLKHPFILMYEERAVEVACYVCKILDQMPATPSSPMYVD
# Chain of KIT(D816V) (P10721 whole entry D816V): as the sequence (P10721 whole entry V559D) above, with D559V, D816V counted along it
# T2 sequence (P45983 whole entry): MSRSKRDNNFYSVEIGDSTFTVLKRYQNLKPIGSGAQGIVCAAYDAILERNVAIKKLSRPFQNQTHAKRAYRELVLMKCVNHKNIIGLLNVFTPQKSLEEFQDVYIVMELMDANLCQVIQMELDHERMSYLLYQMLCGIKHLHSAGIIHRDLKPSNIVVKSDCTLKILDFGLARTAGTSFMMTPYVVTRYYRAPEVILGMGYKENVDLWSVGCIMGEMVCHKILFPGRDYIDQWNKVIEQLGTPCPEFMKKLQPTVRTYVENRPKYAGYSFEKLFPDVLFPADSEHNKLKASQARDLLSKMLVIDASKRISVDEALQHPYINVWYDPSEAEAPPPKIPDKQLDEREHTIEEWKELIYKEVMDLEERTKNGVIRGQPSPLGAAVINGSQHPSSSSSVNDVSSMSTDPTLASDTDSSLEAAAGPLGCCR
# T1 sequence (P00519 whole entry E255K): as the sequence (P00519 whole entry F317L) above, with E255K, L317F counted along it
structure (smiles),measurement,setting,value
Cc1cnc2nc1Nc1cccc(c1)COCc1cc(ccc1OCCN1CCCC1)N2 [Compound 1],remaining binding at 0.1 µM,[1],79%
same,remaining binding at 0.1 µM,[2],100%
same,remaining binding at 0.1 µM,[3],76%
same,remaining binding at 0.1 µM,[4],81%
same,remaining binding at 0.1 µM,[5],74%
same,remaining binding at 0.1 µM,[6],89%
same,remaining binding at 0.1 µM,[7],89%
same,remaining binding at 0.1 µM,[8],84%
same,remaining binding at 0.1 µM,[9],50%
same,remaining binding at 0.1 µM,[10],98%
same,remaining binding at 0.1 µM,[11],93%
same,remaining binding at 0.1 µM,[12],70%
same,remaining binding at 0.1 µM,[13],100%
same,remaining binding at 0.1 µM,[14],78%
same,remaining binding at 0.1 µM,[15],82%
same,remaining binding at 0.1 µM,[16],100%
same,remaining binding at 0.1 µM,[17],38%
same,remaining binding at 0.1 µM,[18],97%
same,remaining binding at 0.1 µM,[19],83%
same,remaining binding at 0.1 µM,[20],91%
same,remaining binding at 0.1 µM,[21],90%
same,remaining binding at 0.1 µM,[22],92%
same,remaining binding at 0.1 µM,[23],85%
same,remaining binding at 0.1 µM,[24],51%
same,remaining binding at 0.1 µM,[25],43%
